# Tests used:
# Assay in all cases: relative viability (nuclei count vs DMSO), 5 days (fraction); higher = more cells survive
# [1] = compound: C1CCC(CC1)N(CCNCCC2=C3C(=C(C=C2)O)NC(=O)CO3)C(=O)CCNCCC4=CC(=C(C=C4)Cl)Cl [AZ505] + CC1(C)CCC(c2ccc(Cl)cc2)=C(CN2CCN(c3ccc(C(=O)NS(=O)(=O)c4ccc(N[C@H](CCN5CCOCC5)CSc5ccccc5)c(S(=O)(=O)C(F)(F)F)c4)cc3)CC2)C1 [Navitoclax] (partner 0.5 µM)
# Method in brief: (§1)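 Relative viability is defined as nuclei in treated wells over nuclei in vehicle wells. Duplicate plates were run and medians reported. Lung cancer cell lines in 1536-well plates were dosed by pin tool one day after seeding, with one drug or with a fixed anchor-drug dose plus five library-drug doses (not always all listed) in √10 steps, and nuclei were counted after 5 days.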
# [2] = compound: Cn1c(=O)n(-c2ccc(C(C)(C)C#N)cc2)c2c3cc(-c4cnc5ccccc5c4)ccc3ncc21 [Dactolisib] + C[C@]1(O)C[C@@H](c2nc(-c3ccc4ccc(-c5ccccc5)nc4c3)c3c(N)nccn32)C1 [Linsitinib] (partner 1 µM)
# Method in brief: as §1
# [3] = compound: C1CCC(CC1)N(CCNCCC2=C3C(=C(C=C2)O)NC(=O)CO3)C(=O)CCNCCC4=CC(=C(C=C4)Cl)Cl [AZ505] + CC(=O)c1c(C)c2cnc(Nc3ccc(N4CCNCC4)cn3)nc2n(C2CCCC2)c1=O [Palbociclib] (partner 0.5 µM)
# Method in brief: as §1
# [4] = compound: Cn1c(=O)n(-c2ccc(C(C)(C)C#N)cc2)c2c3cc(-c4cnc5ccccc5c4)ccc3ncc21 [Dactolisib] + C[C@@H](Oc1cc(-c2cnn(C3CCNCC3)c2)cnc1N)c1c(Cl)ccc(F)c1Cl [Crizotinib] (partner 1 µM)
# Method in brief: as §1
Cell Line,relative viability ([1]; first compound 0.08 µM),relative viability ([1]; first compound 0.253 µM),relative viability ([1]; first compound 0.8 µM),relative viability ([1]; first compound 2.53 µM),relative viability ([1]; first compound 8 µM),relative viability ([2]; first compound 0.002 µM),relative viability ([2]; first compound 0.006325 µM),relative viability ([2]; first compound 0.02 µM),relative viability ([2]; first compound 0.06325 µM),relative viability ([2]; first compound 0.2 µM),relative viability ([3]; first compound 0.08 µM),relative viability ([3]; first compound 0.253 µM),relative viability ([3]; first compound 0.8 µM),relative viability ([3]; first compound 2.53 µM),relative viability ([3]; first compound 8 µM),relative viability ([4]; first compound 0.002 µM),relative viability ([4]; first compound 0.006325 µM),relative viability ([4]; first compound 0.02 µM),relative viability ([4]; first compound 0.06325 µM),relative viability ([4]; first compound 0.2 µM)
201T,1.19,1.24,1.17,1.18,1.19,1.03,1.08,0.979,0.862,0.73,0.36,0.353,0.331,0.357,0.353,1.03,1.04,0.998,0.977,0.913
A549,1.2,1.23,1.14,1.2,1.32,0.578,0.58,0.465,0.194,0.125,,,,,,0.855,0.653,0.569,0.162,0.0827
A-427,0.967,0.942,0.919,0.949,0.802,1.16,1.12,1.14,0.748,0.609,0.529,0.526,0.499,0.512,0.527,0.93,0.856,0.844,0.615,0.48
ABC-1,,,,,,0.948,0.614,0.694,0.363,0.326,0.469,,0.686,0.661,0.517,0.632,0.97,0.908,0.765,0.396
BEN,0.078,0.0642,0.0775,0.0686,0.0829,0.888,0.852,0.647,0.446,0.297,0.458,0.457,0.442,0.48,0.498,0.785,0.77,0.859,0.467,0.296
CAL-12T,1.12,1.15,1.21,1.29,1.24,0.911,0.72,0.753,0.291,0.334,0.324,0.437,0.372,0.477,0.618,0.624,0.661,0.425,0.216,0.215
COR-L23,0.893,1.01,0.877,0.833,0.928,1.01,0.8,0.448,0.17,0.139,0.259,0.253,0.264,0.284,0.281,0.787,0.604,0.619,0.283,0.165
COR-L 105,0.772,0.692,0.83,0.844,0.778,1.17,0.653,0.948,0.362,0.312,0.399,0.405,0.369,0.406,0.399,0.85,0.874,0.561,0.645,0.283
Calu-6,0.778,0.818,0.799,0.897,0.937,0.875,0.939,0.898,0.492,0.495,,,,,,0.891,0.766,0.702,0.462,0.325
ChaGo-K-1,1.02,0.856,1.04,1.14,1.07,,,,,,0.823,0.999,1,0.92,0.91,1.06,1.03,1.1,1.12,1.13
EBC-1,0.353,0.442,0.405,0.435,0.431,0.974,0.756,0.863,0.202,0.177,,,,,,0.226,0.181,0.208,0.198,0.2
EKVX,0.84,0.961,0.986,0.994,1.03,0.896,0.908,0.962,0.682,0.327,,0.365,0.378,0.372,0.389,0.971,0.879,0.923,0.686,0.341
EMC-BAC-2,1.12,1.26,1.15,1.14,1.27,0.872,0.806,0.798,0.591,0.475,0.437,0.528,0.496,0.509,0.526,0.834,0.718,0.708,0.565,0.34
EPLC-272H,1.07,0.967,1.08,0.934,1.06,1.16,1.09,0.969,0.575,0.491,0.272,0.291,0.315,0.298,0.35,0.949,0.564,0.647,0.494,0.483
H3255,0.439,0.526,0.529,0.698,0.615,1.13,0.919,0.967,0.626,0.416,0.292,0.31,0.301,0.298,0.302,0.974,0.813,0.912,0.556,0.391
HARA,1.14,1.12,1.12,1.07,1.08,1,0.884,0.842,0.573,0.211,0.198,0.266,0.185,0.218,0.224,1.12,1.02,1.04,1.01,0.421
HCC-15,0.657,0.734,0.697,0.721,0.669,0.976,0.864,0.873,0.441,0.367,0.78,0.714,0.686,0.847,0.739,0.826,0.767,0.788,0.556,0.366
HCC-44,1,0.963,0.927,1.01,0.939,0.707,0.741,0.431,0.315,0.265,0.966,1.03,0.945,0.976,0.91,0.879,0.763,0.816,0.446,0.414
HCC-78,,0.852,0.832,0.919,0.818,0.476,0.457,0.383,0.223,0.207,0.452,0.409,0.4,0.435,0.434,0.316,0.331,0.285,0.266,0.222
HCC-366,1.03,0.948,1.02,1.12,1.06,0.561,0.453,0.487,0.185,0.0961,0.361,0.491,0.326,0.402,0.384,0.409,0.574,0.531,0.302,0.168

Cell Line,relative viability ([1]; first compound 0.08 µM),relative viability ([1]; first compound 0.253 µM),relative viability ([1]; first compound 0.8 µM),relative viability ([1]; first compound 2.53 µM),relative viability ([1]; first compound 8 µM),relative viability ([2]; first compound 0.002 µM),relative viability ([2]; first compound 0.006325 µM),relative viability ([2]; first compound 0.02 µM),relative viability ([2]; first compound 0.06325 µM),relative viability ([2]; first compound 0.2 µM),relative viability ([3]; first compound 0.08 µM),relative viability ([3]; first compound 0.253 µM),relative viability ([3]; first compound 0.8 µM),relative viability ([3]; first compound 2.53 µM),relative viability ([3]; first compound 8 µM),relative viability ([4]; first compound 0.002 µM),relative viability ([4]; first compound 0.006325 µM),relative viability ([4]; first compound 0.02 µM),relative viability ([4]; first compound 0.06325 µM),relative viability ([4]; first compound 0.2 µM)
HCC-827,1.03,0.966,0.967,0.963,0.98,1.02,0.919,1.03,0.911,0.699,0.416,0.551,0.374,0.509,0.525,0.978,0.897,0.992,0.809,0.506
HOP-62,0.946,1.1,0.972,1.03,0.992,1.04,0.626,0.873,0.447,0.342,0.403,0.535,0.461,0.475,0.52,1.06,1.01,0.923,0.505,0.472
IA-LM,0.622,0.943,0.703,0.779,0.872,0.681,0.613,0.6,0.124,0.206,,,,,,0.903,0.561,0.539,0.162,0.0865
LCLC-103H,,,,,,1.06,1.07,0.934,0.661,0.531,0.485,0.455,0.455,0.45,0.452,1.03,0.985,1.08,0.675,0.461
NCI-H358,,,,,,0.848,0.641,0.549,0.293,0.211,0.122,0.156,0.153,0.139,0.151,0.702,0.705,0.738,0.391,0.189
NCI-H522,,,,,,,,,,,0.91,0.946,0.891,1.04,1.16,,,,,
NCI-H596,0.862,0.806,0.597,0.803,0.87,1.18,0.935,0.924,0.523,0.387,,,,,,0.974,0.874,0.742,0.595,0.395
NCI-H650,,,,,,1.26,0.752,0.697,0.576,0.415,0.279,0.377,0.322,0.395,0.309,0.627,0.747,0.752,0.519,0.393
NCI-H661,,,,,,0.453,0.454,0.505,0.223,0.23,0.404,0.433,0.402,0.422,0.372,0.987,0.979,1.14,0.779,0.613
NCI-H1299,1.02,0.991,0.974,1.02,1,0.979,0.929,1.01,0.573,0.608,,,,,,0.941,0.964,0.997,0.76,0.649
NCI-H1395,1.09,1.06,1.06,1.07,1.18,0.91,0.844,0.998,0.653,0.834,0.593,,0.638,0.661,0.686,,,,,
NCI-H1563,,,,,,1.25,1.11,1.02,0.62,0.654,,,,,,0.839,0.789,0.76,0.62,0.597
NCI-H1648,,,,,,,,,,,,0.264,0.305,0.284,0.27,,,,,
NCI-H1650,1.21,1.34,1.25,1.15,1.14,,,,,,0.34,0.412,0.278,0.35,0.317,0.832,0.944,0.718,0.823,0.559
NCI-H1703,1.05,1.36,1.32,1.31,1.55,,0.637,0.891,0.417,0.468,,,,,,0.581,0.49,0.373,0.35,0.18
NCI-H1793,0.352,0.405,0.455,0.396,0.428,0.813,0.559,0.321,0.183,0.158,0.293,0.271,0.3,0.307,0.347,,,,,
NCI-H2170,0.541,0.665,0.531,0.666,0.651,,,,,,0.38,0.39,0.379,0.401,0.434,1.2,1.17,0.832,0.677,0.331
NCI-H2342,,,,,,,,,,,0.472,0.509,0.575,0.549,0.505,,,,,
SW 900,,,,,,,,,,,0.542,0.505,0.471,0.509,0.542,,,,,
